These results are taken from patent US11767313B2, “Compounds as nuclear transport modulators and uses thereof” (XWPHARMA LTD., priority 2018, dated 2023).

The conditions of series [1]: mouse, in vivo, po.
Series [2] has as its system H460. Nature of the series: CellTiter-Glo cell proliferation assay, H460. Format: cell-based. The conditions noted are these: Homo sapiens, NCI-H460, 72 hours, Table 1, read-out: Growth inhibition (IC50). As for the experimental part:
(§1) CellTiter-Glo® Luminescent Cell Viability assay (with Promega CellTiter 96® Luminescent CellTiter-Glo® kit) was used to study the proliferation inhibition by test compounds. Compounds were resuspended in DMSO to make a 25 mM stock suspension. Cells of cancer cell lines or normal tissues were seeded in 96-well plates at 1,500 to 5,000 cells/well overnight. Compounds were 2- or 3-fold diluted serially to obtain 10 concentrations. Then, the drugs were added to the cell wells by Bravo (Agilent) and incubated for 72 hours. The cells were lysed by adding CellTiter-Glo® Reagent (per manufacturer's instructions) and subsequently, the luminescence was read using EnVision® (PerkinElmer).
(§2) The percent of growth was calculated as follows. DMSO-treated cells were employed as vehicle control (High control, HC) and culture medium alone was employed as background (Low control, EC). % growth=100×(Lum sample−Lum EC)/(Lum HC−Lum EC). The ICso was calculated by concentration-response curve fitting using Graphpad Prism.
(§3) Hematological cancer cell lines tested included OCI-AML3, MV-4-11, KG-1, Kasumi-1, K562, THP-1; solid cancer cell lines tested included U87MG, U251, T98G, LN229, A172, H460, H2009, A549; normal cell lines tested included HCN2 and 3T3-L1. […] However, they were not toxic to in vitro cultured normal cells.
In general terms: In ATP-based viability assays light output follows the ATP content of the culture.

Series [3] in a line: Pharmacokinetic profile in plasma. It is filed as in vivo. The conditions noted are these: P.O., mice. As for the experimental part:
Blood was collected from mice (n=3, or 5) to contribute to the total of 10 time points (pre-dose, 5 min, 15 min, 30 min, 1 hour, 2 hours, 4 hours, 8 hours, 12 hours and 24 hours). At the designated time points, animals were anaesthetized under isoflurane, and approximately 110 μL of blood per time point was collected via retro-orbital puncture into pre-cooled K2EDTA tubes. Blood samples were put on wet ice and centrifuged (2000 g, 5 min at 4° C.) to obtain plasma within 30 minutes of sample collection. All samples were stored frozen at approximately −80° C. until analysis. Prior to analysis, samples were mixed with internal standard in acetonitrile, vortexed, centrifuged, and supernatant was injected for analysis. Concentration of compounds in plasma was determined using LC-MS-MS instrumentation (API 4000, Triple Quadrupole LC/MS/MS Mass Spectrometer). AUC values were calculated using Phoenix Win Nonlin 6.3 software package, PO-Noncompartmental model 200 (extravascular input).

Series [4] concerns 3T3-L1. Nature of the series: CellTiter-Glo cell proliferation assay, 3T3-L1 (normal). It is filed as cell-based. The conditions noted are these: Mus musculus. As for the experimental part: as §1, §2, §3
Series [5] in a line: Pharmacokinetic profile in plasma. It is filed as in vivo. The conditions noted are these: mouse, iv, I. V., mice.
Series [6] deals with Ki67. Nature of the series: PD effects by IHC in U87MG-luc orthotopic model, Ki67. Format: in vivo, mice. The settings on record: orally three times a week for 2 weeks; vs vehicle control. As for the experimental part: Based on the bioluminescent signal of tumor, mice were randomly assigned to respective groups using a computer-generated randomization procedure, which included vehicle and compound III-treated groups, respectively, with 5 animals per group. Compound III (20 mg/kg) was given orally 3 times a week (on Day 1, 3, 5) for 2 weeks. Animals for IHC study were euthanized at 6 hours after the last dose and perfused with normal saline followed by fixation with 4% paraformaldehyde. Entire brains containing tumors were collected and kept in fixative for 24 hours before proceeding for paraffin block.

Series [7] has as its target XPO1 (Homo sapiens, UniProt O14980). In words: Compound washout assay in REV-GFP cells. The conditions noted are these: for XPO1 inhibition post washout: 400 nM (EC90); for effect on nuclear retention of REV: at EC50 (120 nM). As for the experimental part: In order to evaluate the duration of XPO1 inhibition by test compounds on XPO1 protein after washout, washout assay was performed using REV-GFP cells. The test compounds and positive control were added to the cell well, and the plate was incubated the at 37° C. and 5% CO2 for 1 h. The drug-containing media were removed, the cells were washed, and the fresh media were added. The cells were imagined at the specified time points 0, 4, 24, 48, 72, and 96 hours to evaluate the inhibition of REV nuclear export. […] 4A. […] 4B. […] 4C.

Read-outs that look alike come from different tables or passages of the source.

Sequence of XPO1 (O14980 whole entry): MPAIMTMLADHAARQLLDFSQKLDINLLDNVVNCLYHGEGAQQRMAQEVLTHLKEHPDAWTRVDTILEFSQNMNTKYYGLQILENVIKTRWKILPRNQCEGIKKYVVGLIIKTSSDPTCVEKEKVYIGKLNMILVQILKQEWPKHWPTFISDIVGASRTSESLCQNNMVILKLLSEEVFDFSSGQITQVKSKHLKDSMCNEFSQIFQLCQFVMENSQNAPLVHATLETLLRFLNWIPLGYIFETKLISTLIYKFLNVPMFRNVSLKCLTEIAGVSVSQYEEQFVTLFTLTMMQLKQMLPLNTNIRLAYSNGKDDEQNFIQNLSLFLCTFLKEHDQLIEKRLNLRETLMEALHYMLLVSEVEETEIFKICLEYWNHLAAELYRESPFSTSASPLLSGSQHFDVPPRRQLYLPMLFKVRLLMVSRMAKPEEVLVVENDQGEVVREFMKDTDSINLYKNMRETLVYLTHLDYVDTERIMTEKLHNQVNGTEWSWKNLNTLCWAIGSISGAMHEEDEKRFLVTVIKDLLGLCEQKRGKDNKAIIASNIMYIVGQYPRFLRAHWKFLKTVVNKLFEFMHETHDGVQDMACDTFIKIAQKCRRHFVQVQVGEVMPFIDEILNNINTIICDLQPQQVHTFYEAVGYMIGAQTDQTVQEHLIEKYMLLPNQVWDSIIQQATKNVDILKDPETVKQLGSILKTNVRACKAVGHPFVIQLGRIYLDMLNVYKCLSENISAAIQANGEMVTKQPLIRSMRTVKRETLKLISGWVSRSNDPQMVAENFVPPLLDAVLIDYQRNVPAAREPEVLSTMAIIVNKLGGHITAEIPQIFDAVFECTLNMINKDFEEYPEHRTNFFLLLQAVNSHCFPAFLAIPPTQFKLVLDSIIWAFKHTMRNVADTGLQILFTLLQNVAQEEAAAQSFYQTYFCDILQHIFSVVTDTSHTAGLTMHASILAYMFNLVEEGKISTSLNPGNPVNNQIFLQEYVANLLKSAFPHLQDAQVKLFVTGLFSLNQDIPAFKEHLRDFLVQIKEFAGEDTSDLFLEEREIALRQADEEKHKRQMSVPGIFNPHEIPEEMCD

In the case of `O=C(/C=C\n1cnc(-c2cc(C(F)(F)F)cc(S(F)(F)(F)(F)F)c2)n1)NNc1cnccn1` [Compound I, (Z)-3-(3-(3-(pentafluorosulfanyl)-5-(trifluoromethyl)phenyl)-1H-1,2,4-triazol-1-yl)-N′-(pyrazin-2-yl)acrylohydrazide], the “survival in MTD study” value in series [1] is “survived”. Also, the IC50 in series [2] amounted to 0.294 µM. In series [3], this compound had an AUG0-inf of 10430 ng·h/mL. For the same compound, in series [3] (mouse, po), the peak level (Cmax) was 2550 ng/mL, the Tmax was 0.75 h and the half-life was 4.72 h. Further, the MRT inf in series [3] (mouse, po, read-out: MRT0-inf) turned out to be 5.55 h. For the same compound, the MRT last in series [3] (mouse, po, read-out: MRT0-last) is 4.51 h. In addition, the IC50 in series [4] (3T3-L1, Table 6, read-out: 3T3-L1 IC50) was more than 50 µM. Further, in series [4] (3T3-L1 normal cell line, 72 hours, Table 1, read-out: Growth inhibition (IC50)), the IC50 was more than 50 µM. For the same compound, in series [5], the AUC(0-t) turned out to be 1040 ng·h/mL, the C0 is 1010 ng/mL, the clearance turned out to be 16 mL/min/kg and the half-life was 1.62 h. For the same compound, the MRT last in series [5] (read-out: MRT0-last) was determined as 1.56 h. Besides, the Vd in series [5] (read-out: Vdss) was 1.68 L/kg.
Regarding `CC(C)(C)C(=O)NNC(=O)/C=C\n1cnc(-c2cc(C(F)(F)F)cc(S(F)(F)(F)(F)F)c2)n1` [Compound III, (Z)-3-(3-(3-(Pentafluorosulfanyl)-5-(trifluoromethyl)phenyl)-1H-1,2,4-triazol-1-yl)-N′-pivaloylacrylohydrazide], the “expression of Ki67 in tumors (IHC)” value in series [6] is “significantly decreased”. In addition, the “XPO1 inhibition post washout” value in series [7] (4 hours post washout) is “sustained XPO1 inhibition”; in series [7] (by 24 hours post washout), “gradually diminished”. Besides, the “effect on nuclear retention of REV” value was 20% in series [7] (4 hours post washout), “completely lost” in series [7] (24 hours post washout) and “about 40%” in series [7] (following 1-hour treatment). Further, in series [7] (washout assay), the “toxicity / cell number compared to the control” value is recorded as “no decrease in the cell number was observed”.

For orientation: IC50 means the concentration needed to halve the response being measured. One may read the Cmax as the peak of the concentration-time curve. For orientation: Tmax means the time from dosing to the highest level. What is called half-life is how long it takes for the measured level to halve. The low end stands for fast loss, the high end for slow loss. By AUC(0-t) is commonly meant exposure summed from dosing to a finite time, without extrapolation to infinity. In general, clearance refers to a measure of how efficiently the substance is removed, as volume per time. Low values mean a low capacity for elimination, high ones a high capacity for elimination.
